Holding throughout (assay): intrinsic fluorescence titration at equilibrium
Common to all, as to assay type: binding

In test [1] the target is T1, MetRS M547 (His-tagged monomeric E. coli MetRS) (Escherichia coli, UniProt P00959, I298C/L14M).
T1 construct: gene metG; M547: C-terminally truncated monomeric fragment (about 547 residues), His-tagged, pET15blpa, expressed in E. coli BLR(DE3)
T1 sequence (P00959 2-548 L14M/I298C): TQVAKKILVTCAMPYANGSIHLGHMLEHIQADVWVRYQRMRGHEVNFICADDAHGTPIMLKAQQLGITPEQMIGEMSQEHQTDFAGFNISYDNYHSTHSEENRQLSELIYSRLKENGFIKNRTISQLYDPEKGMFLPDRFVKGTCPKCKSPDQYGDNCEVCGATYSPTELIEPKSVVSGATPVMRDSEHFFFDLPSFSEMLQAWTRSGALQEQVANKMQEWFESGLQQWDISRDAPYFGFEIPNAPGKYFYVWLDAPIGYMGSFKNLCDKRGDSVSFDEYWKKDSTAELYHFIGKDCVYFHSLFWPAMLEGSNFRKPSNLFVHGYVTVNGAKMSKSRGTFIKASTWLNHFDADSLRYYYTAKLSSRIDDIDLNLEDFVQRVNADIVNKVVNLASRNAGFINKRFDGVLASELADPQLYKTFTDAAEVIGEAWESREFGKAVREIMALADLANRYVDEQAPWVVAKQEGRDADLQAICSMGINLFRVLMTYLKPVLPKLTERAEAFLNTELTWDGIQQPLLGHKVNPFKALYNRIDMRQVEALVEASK
The source says:
(§1) intrinsic fluorescence titration at equilibrium on MetRS M547 (His-tagged monomeric E. coli MetRS)

Test [2] deals with T2, MetRS M547 (His-tagged monomeric E. coli MetRS) (Escherichia coli, UniProt P00959, I298C/L14C).
T2 construct: gene metG; M547: C-terminally truncated monomeric fragment (about 547 residues), His-tagged, pET15blpa, expressed in E. coli BLR(DE3)
T2 sequence (P00959 2-548 L14C/I298C): T1 sequence (P00959 2-548 L14M/I298C) with M13C
From the text: as §1

In test [3] the target is T3, MetRS M547 (His-tagged monomeric E. coli MetRS) (Escherichia coli, UniProt P00959, I298C/L14S).
T3 construct: gene metG; M547: C-terminally truncated monomeric fragment (about 547 residues), His-tagged, pET15blpa, expressed in E. coli BLR(DE3)
T3 sequence (P00959 2-548 L14S/I298C): T1 sequence (P00959 2-548 L14M/I298C) with M13S
From the text: as §1

Test [4] has as its target T4, MetRS M547 (His-tagged monomeric E. coli MetRS) (Escherichia coli, UniProt P00959).
T4 construct: gene metG; M547: C-terminally truncated monomeric fragment (about 547 residues), His-tagged, pET15blpa, expressed in E. coli BLR(DE3)
T4 sequence (P00959 2-548): T1 sequence (P00959 2-548 L14M/I298C) with M13L, C297I
From the text: as §1

Test [5] addresses T5, MetRS M547 (His-tagged monomeric E. coli MetRS) (Escherichia coli, UniProt P00959, I298C).
T5 construct: gene metG; M547: C-terminally truncated monomeric fragment (about 547 residues), His-tagged, pET15blpa, expressed in E. coli BLR(DE3)
T5 sequence (P00959 2-548 I298C): T1 sequence (P00959 2-548 L14M/I298C) with M13L
From the text: as §1

These results are taken from publication doi:10.1101/2022.12.28.522074v1, “Redesigning methionyl-tRNA synthetase for β-methionine activity with adaptive landscape flattening and experiments” (biorxiv, 2022).

Changes are numbered by the printed parent chain. Read-outs that look alike come from different tables or passages of the source.

For `CSCC[C@H](N)CC(=O)O` [β-Met], the Kd in test [1] (read-out: Kd(β-Met)) came out at 900 µM; in test [2] (read-out: Kd(β-Met)), 900 µM; in test [3] (read-out: Kd(β-Met)) it was 1000 µM; in test [4] (read-out: Kd(β-Met)), 1200 µM; in test [5] (read-out: Kd(β-Met)) it was 900 µM.

On to `CSCC[C@H](N)C(=O)O` [α-Met], for which the Kd was 160 µM in test [1] (read-out: Kd(α-Met)); 170 µM in test [2] (read-out: Kd(α-Met)); 170 µM in test [3] (read-out: Kd(α-Met)); 50 µM in test [4] (read-out: Kd(α-Met)); 190 µM in test [5] (read-out: Kd(α-Met)).

What is called Kd is the equilibrium constant for the complex coming apart.
